Where two headings read alike, the source gives them in different places. Starred links: 1 amine or outer side, 2 acyl side, 3 side chain; linkers in the order of their positions; H or OH if unused. Non-standard residues stand in square brackets, D forms with d. Residues, ends and D or L forms follow the SMILES beside them. Groups on a side chain read outwards from the residue. *: point of attachment. C18 diacid = O=C(O)CCCCCCCCCCCCCCCCC(=O)*; Dip = N[C@H](C(=O)O)C(c1ccccc1)c1ccccc1; γGlu = O=C(O)[C@H](CCC(=O)[*:2])N[*:1]; αMeF = C[C@](N)(Cc1ccccc1)C(=O)O; AEEA = NCCOCCOCC(=O)O; Aib = CC(C)(N)C(=O)O
Columns and labels:
[1] = biological target: human GLP-1 receptor (hGLP-1R) (Homo sapiens, UniProt P43220); test: cAMP production (HTRF) in CHO cells expressing hGLP-1R; format: cell-based; set-up: expressed in transfected cells; details: for % Relative Potency Ratio: % GLP-1R activity relative to GLP-1 / % GlucR activity relative to glucagon
Chain of human GLP-1 receptor (hGLP-1R) (P43220 24-463): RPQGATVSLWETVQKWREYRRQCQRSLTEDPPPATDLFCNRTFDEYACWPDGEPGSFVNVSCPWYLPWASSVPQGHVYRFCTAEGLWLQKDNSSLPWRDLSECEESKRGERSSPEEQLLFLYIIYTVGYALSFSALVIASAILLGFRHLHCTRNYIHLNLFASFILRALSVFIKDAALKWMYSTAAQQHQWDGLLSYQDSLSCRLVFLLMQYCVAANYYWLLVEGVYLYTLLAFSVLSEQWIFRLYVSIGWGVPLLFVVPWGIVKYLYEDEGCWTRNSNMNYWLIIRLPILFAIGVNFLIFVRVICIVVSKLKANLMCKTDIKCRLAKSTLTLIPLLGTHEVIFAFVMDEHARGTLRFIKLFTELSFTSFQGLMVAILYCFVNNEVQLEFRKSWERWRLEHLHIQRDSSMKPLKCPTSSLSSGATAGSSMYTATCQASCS
How it was run: (§1)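 Potency values represent EC50 from 4-parameter logistic curves of HTRF % Delta F signal. Receptor-expressing CHO cells (hGCGR 2×10^5 cells/mL, hGLP-1R 1×10^5 cells/mL) were exposed for 30 min at room temperature before two-step cAMP detection.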

[2] = biological target: human glucagon receptor (hGCGR) (Homo sapiens, UniProt P47871); test: cAMP production (HTRF) in CHO cells expressing hGCGR; format: cell-based; set-up: expressed in transfected cells; details: geometric mean
Chain of human glucagon receptor (hGCGR) (P47871 26-477): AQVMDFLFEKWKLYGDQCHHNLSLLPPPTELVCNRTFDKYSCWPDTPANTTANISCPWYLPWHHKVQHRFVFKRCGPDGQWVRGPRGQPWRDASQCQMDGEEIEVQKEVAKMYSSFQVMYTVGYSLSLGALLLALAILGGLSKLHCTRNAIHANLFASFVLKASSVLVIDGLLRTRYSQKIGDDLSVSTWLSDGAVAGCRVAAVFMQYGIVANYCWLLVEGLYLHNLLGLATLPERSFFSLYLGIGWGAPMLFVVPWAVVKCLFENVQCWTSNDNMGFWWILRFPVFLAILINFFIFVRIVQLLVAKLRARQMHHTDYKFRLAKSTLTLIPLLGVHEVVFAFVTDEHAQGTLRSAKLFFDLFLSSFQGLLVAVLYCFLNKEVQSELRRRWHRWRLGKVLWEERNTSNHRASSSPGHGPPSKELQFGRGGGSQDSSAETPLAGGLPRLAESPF
How it was run: as §1

[3] = Table 7, peptides modified at position 20, cAMP in CHO hGLP-1R cells, geometric mean, read-out: hGLP-1R EC50
[4] = Table 7, peptides modified at position 20, cAMP in CHO hGCGR cells, read-out: hGluc-R EC50
[5] = cAMP, CHO cells, 0.1% BSA, geometric mean, read-out: hGLP-1R EC50
[6] = cAMP, CHO cells, 0.1% BSA, read-out: hGluc-R EC50
[7] = hGluc-R EC50 (pM), cAMP, CHO cells, 0.1% BSA

| EC50 [1, 3] [pM] | % Relative Potency Ratio ([1]; Table 7) | EC50 [2, 4] [pM] | SMILES | also measured |
| --- | --- | --- | --- | --- |
| 363 | 0.4 | 72.8 | CC(C)C[C@H](NC(=O)[C@H](Cc1c[nH]c2ccccc12)NC(=O)[C@H](CCC(N)=O)NC(=O)[C@@H](NC(=O)[C@H](Cc1ccccc1)NC(=O)[C@H](CC(=O)O)NC(=O)[C@H](CCCCNC(=O)CC[C@H](NC(=O)CCCCCCCCCCCCCCCCC(=O)O)C(=O)O)NC(=O)[C@H](C)NC(=O)[C@H](CCCNC(=N)N)NC(=O)[C@H](CCCNC(=N)N)NC(=O)[C@H](CO)NC(=O)[C@H](CC(=O)O)NC(=O)[C@H](CC(C)C)NC(=O)[C@](C)(Cc1ccccc1)NC(=O)[C@H](CCCCN)NC(=O)[C@H](CO)NC(=O)[C@H](Cc1ccc(O)cc1)NC(=O)[C@H](CC(=O)O)NC(=O)[C@H](CO)NC(=O)[C@@H](NC(=O)[C@H](Cc1ccccc1)NC(=O)[C@@H](NC(=O)CNC(=O)[C@H](CCC(N)=O)NC(=O)C(C)(C)NC(=O)[C@@H](N)Cc1c[nH]cn1)[C@@H](C)O)[C@@H](C)O)C(C)C)C(=O)N[C@@H](CC(C)C)C(=O)N[C@@H](CCC(=O)O)C(=O)NC(C)(C)C(=O)N[C@H](C(=O)O)[C@@H](C)O [Peptide 341] | – |
| 220 | 43.4 | 4830 | CC[C@H](C)[C@H](NC(=O)[C@H](Cc1c[nH]c2ccccc12)NC(=O)[C@H](CCC(N)=O)NC(=O)[C@@H](NC(=O)[C@H](Cc1ccccc1)NC(=O)[C@H](CC(=O)O)NC(=O)[C@H](CCCCNC(=O)CC[C@H](NC(=O)CCCCCCCCCCCCCCCCC(=O)O)C(=O)O)NC(=O)[C@H](C)NC(=O)[C@H](C)NC(=O)[C@H](CCCNC(=N)N)NC(=O)[C@H](CO)NC(=O)[C@H](CC(=O)O)NC(=O)[C@H](CC(C)C)NC(=O)[C@](C)(Cc1ccccc1)NC(=O)[C@H](CCCCN)NC(=O)[C@H](CO)NC(=O)[C@@H](NC(=O)[C@H](CC(=O)O)NC(=O)[C@H](CO)NC(=O)[C@@H](NC(=O)[C@H](Cc1ccccc1)NC(=O)[C@@H](NC(=O)CNC(=O)[C@H](CCC(N)=O)NC(=O)C(C)(C)NC(=O)[C@@H](N)Cc1c[nH]cn1)[C@@H](C)O)[C@@H](C)O)C(C)C)C(C)C)C(=O)N[C@@H](C)C(=O)N[C@@H](CC(N)=O)C(=O)N[C@H](C(=O)O)[C@@H](C)O [Peptide 342] | – |

Second part, the compound before the results:

| SMILES | EC50 [1, 3] [pM] | % Relative Potency Ratio ([1]; Table 7) | EC50 [2, 4] [pM] | also measured |
| --- | --- | --- | --- | --- |
| CC(C)C[C@H](NC(=O)[C@H](Cc1c[nH]c2ccccc12)NC(=O)[C@H](CCC(N)=O)NC(=O)[C@@H](NC(=O)[C@H](Cc1ccccc1)NC(=O)[C@H](CC(=O)O)NC(=O)[C@H](CCCCNC(=O)CC[C@H](NC(=O)CCCCCCCCCCCCCCCCC(=O)O)C(=O)O)NC(=O)[C@H](C)NC(=O)[C@H](CCCNC(=N)N)NC(=O)[C@H](CCCNC(=N)N)NC(=O)[C@H](CO)NC(=O)[C@H](CC(=O)O)NC(=O)[C@H](CC(C)C)NC(=O)[C@](C)(Cc1ccccc1)NC(=O)[C@H](CCCCN)NC(=O)[C@H](CO)NC(=O)[C@H](Cc1ccc(O)cc1)NC(=O)[C@H](CC(=O)O)NC(=O)[C@H](CO)NC(=O)[C@@H](NC(=O)[C@H](Cc1ccccc1)NC(=O)[C@@H](NC(=O)CNC(=O)[C@H](CCC(N)=O)NC(=O)C(C)(C)NC(=O)[C@@H](N)Cc1c[nH]cn1)[C@@H](C)O)[C@@H](C)O)C(C)C)C(=O)N[C@@H](CC(C)C)C(=O)NC(C)(C)C(=O)N[C@@H](CCC(=O)O)C(=O)O [Peptide 339] (H-H[Aib]QGTFTSDYSK[αMeF]LDSRRAK([γGlu-C18 diacid])DFVQWLL[Aib]E-OH; N-terminus assumed) | 312 | 0.4 | 70.3 | – |
| CC(C)C[C@H](NC(=O)[C@H](Cc1c[nH]c2ccccc12)NC(=O)[C@H](CCC(N)=O)NC(=O)[C@@H](NC(=O)[C@H](Cc1ccccc1)NC(=O)[C@H](CC(=O)O)NC(=O)[C@H](CCCCNC(=O)CC[C@H](NC(=O)CCCCCCCCCCCCCCCCC(=O)O)C(=O)O)NC(=O)[C@H](C)NC(=O)[C@H](CCCNC(=N)N)NC(=O)[C@H](CCCNC(=N)N)NC(=O)[C@H](CO)NC(=O)[C@H](CC(=O)O)NC(=O)[C@H](CC(C)C)NC(=O)[C@](C)(Cc1ccccc1)NC(=O)[C@H](CCCCN)NC(=O)[C@H](CO)NC(=O)[C@H](Cc1ccc(O)cc1)NC(=O)[C@H](CC(=O)O)NC(=O)[C@H](CO)NC(=O)[C@@H](NC(=O)[C@H](Cc1ccccc1)NC(=O)[C@@H](NC(=O)CNC(=O)[C@H](CCC(N)=O)NC(=O)C(C)(C)NC(=O)[C@@H](N)Cc1c[nH]cn1)[C@@H](C)O)[C@@H](C)O)C(C)C)C(=O)N[C@@H](CC(C)C)C(=O)NC(C)(C)C(=O)N[C@H](C(=O)N[C@@H](CCC(=O)O)C(=O)O)[C@@H](C)O [Peptide 340] | 312 | 0.6 | 94.7 | – |
| CC[C@H](C)[C@H](NC(=O)[C@H](Cc1c[nH]c2ccccc12)NC(=O)[C@H](CCCCNC(=O)CC[C@H](NC(=O)CCCCCCCCCCCCCCCCC(=O)O)C(=O)O)NC(=O)[C@@H](NC(=O)[C@H](Cc1ccccc1)NC(=O)[C@H](CC(=O)O)NC(=O)[C@H](CCC(N)=O)NC(=O)[C@H](C)NC(=O)[C@H](C)NC(=O)[C@H](CCCNC(=N)N)NC(=O)[C@H](CO)NC(=O)[C@H](CC(=O)O)NC(=O)[C@H](CC(C)C)NC(=O)[C@@H](NC(=O)[C@H](CCCCN)NC(=O)[C@H](CO)NC(=O)[C@@H](NC(=O)[C@H](CC(=O)O)NC(=O)[C@H](CO)NC(=O)[C@@H](NC(=O)[C@H](Cc1ccccc1)NC(=O)[C@H](CO)NC(=O)CNC(=O)[C@H](CCC(N)=O)NC(=O)C(C)(C)NC(=O)[C@@H](N)Cc1c[nH]cn1)[C@@H](C)O)C(C)C)C(c1ccccc1)c1ccccc1)C(C)C)C(=O)N[C@@H](C)C(=O)N[C@@H](CC(N)=O)C(=O)N[C@H](C(N)=O)[C@@H](C)O [Peptide 343] (H-H[Aib]QGSFTSDVSK[Dip]LDSRAAQDFVK([γGlu-C18 diacid])WIANT-NH2; N-terminus assumed) | – | – | – | % Relative Potency Ratio [1]: 4.2; EC50 [1, 5]: 58.6 pM; EC50 [2, 6]: 126 pM |
| CC[C@H](C)[C@H](NC(=O)C(C)(C)NC(=O)[C@H](CCCCNC(=O)COCCOCCNC(=O)COCCOCCNC(=O)CC[C@H](NC(=O)CCCCCCCCCCCCCCCCC(=O)O)C(=O)O)NC(=O)[C@@H](NC(=O)[C@](C)(Cc1ccccc1)NC(=O)[C@H](CC(=O)O)NC(=O)[C@H](CCC(N)=O)NC(=O)[C@H](C)NC(=O)[C@H](C)NC(=O)[C@H](CCCNC(=N)N)NC(=O)[C@H](CO)NC(=O)[C@H](CC(=O)O)NC(=O)[C@H](CC(C)C)NC(=O)C(C)(C)NC(=O)[C@H](CCCCN)NC(=O)[C@H](CO)NC(=O)[C@@H](NC(=O)[C@H](CC(=O)O)NC(=O)[C@H](CO)NC(=O)[C@@H](NC(=O)[C@](C)(Cc1ccccc1)NC(=O)[C@H](CO)NC(=O)CNC(=O)[C@H](CCC(N)=O)NC(=O)[C@H](CO)NC(=O)[C@@H](N)Cc1c[nH]cn1)[C@@H](C)O)C(C)C)C(C)C)C(=O)N[C@@H](C)C(=O)N[C@@H](CC(N)=O)C(N)=O [Peptide 344] (H-HSQGS[αMeF]TSDVSK[Aib]LDSRAAQD[αMeF]VK([AEEA-AEEA-γGlu-C18 diacid])[Aib]IAN-NH2; N-terminus assumed) | – | – | – | EC50 [1, 5]: 135 pM; EC50 [2, 6]: > 26900 pM |
| CC[C@H](C)[C@H](NC(=O)[C@H](Cc1c[nH]c2ccccc12)NC(=O)[C@H](CCCCNC(=O)CC[C@H](NC(=O)CCCCCCCCCCCCCCCCCCC(=O)O)C(=O)O)NC(=O)[C@@H](NC(=O)[C@H](Cc1ccccc1)NC(=O)[C@H](CC(=O)O)NC(=O)[C@H](CCC(N)=O)NC(=O)[C@H](C)NC(=O)[C@H](C)NC(=O)[C@H](CCC(N)=O)NC(=O)[C@H](CO)NC(=O)[C@H](CC(=O)O)NC(=O)[C@H](CC(C)C)NC(=O)[C@](C)(Cc1ccccc1)NC(=O)[C@H](CCCCN)NC(=O)[C@H](CO)NC(=O)[C@@H](NC(=O)[C@H](CC(=O)O)NC(=O)[C@H](CO)NC(=O)[C@@H](NC(=O)[C@H](Cc1ccccc1)NC(=O)[C@@H](NC(=O)CNC(=O)[C@H](Cc1c[nH]cn1)NC(=O)C(C)(C)NC(=O)[C@@H](N)Cc1c[nH]cn1)[C@@H](C)O)[C@@H](C)O)C(C)C)C(C)C)C(=O)N[C@@H](C)C(=O)N[C@@H](CC(N)=O)C(=O)N[C@H](C(N)=O)[C@@H](C)O [Peptide 347] | – | – | – | % Relative Potency Ratio [1]: 0.2; EC50 ([1]; hGLP-1R EC50 (pM)): 4970 pM; EC50 [2, 7]: 597 pM |
| CC[C@H](C)[C@H](NC(=O)[C@H](Cc1c[nH]c2ccccc12)NC(=O)[C@H](CCCCNC(=O)COCCOCCNC(=O)COCCOCCNC(=O)CC[C@H](NC(=O)CCCCCCCCCCCCCCCCC(=O)O)C(=O)O)NC(=O)[C@@H](NC(=O)[C@H](Cc1ccccc1)NC(=O)[C@H](CC(=O)O)NC(=O)[C@H](CCC(N)=O)NC(=O)[C@H](C)NC(=O)[C@H](C)NC(=O)[C@H](CCC(N)=O)NC(=O)[C@H](CO)NC(=O)[C@H](CC(=O)O)NC(=O)[C@H](CC(C)C)NC(=O)[C@](C)(Cc1ccccc1)NC(=O)[C@H](CCCCN)NC(=O)[C@H](CO)NC(=O)[C@@H](NC(=O)[C@H](CC(=O)O)NC(=O)[C@H](CO)NC(=O)[C@@H](NC(=O)[C@](C)(Cc1ccccc1)NC(=O)[C@H](CO)NC(=O)CNC(=O)[C@H](CCC(N)=O)NC(=O)C(C)(C)NC(=O)[C@@H](N)Cc1c[nH]cn1)[C@@H](C)O)C(C)C)C(C)C)C(=O)N[C@@H](C)C(=O)N[C@@H](CC(N)=O)C(=O)N[C@H](C(N)=O)[C@@H](C)O [Peptide 348] (H-H[Aib]QGS[αMeF]TSDVSK[αMeF]LDSQAAQDFVK([AEEA-AEEA-γGlu-C18 diacid])WIANT-NH2) | – | – | – | EC50 ([1]; hGLP-1R EC50 (pM)): 70.1 pM; EC50 [2, 7]: 4110 pM |
